Measured values taken from ChEMBL document CHEMBL3044745, “Synthesis and evaluation of biological and nonlinear optical properties of some novel 2,4-disubstituted [1,3]-thiazoles carrying 2-(aryloxymethyl)-phenyl moiety” (2013).

What was measured:
Format in all cases: functional
Aspergillus niger = assay: Antifungal activity against Aspergillus niger assessed as growth inhibition at 10 ug/disk; details: read-out: IZ
Candida albicans = assay: Antifungal activity against Candida albicans assessed as growth inhibition at 10 ug/disk; details: read-out: IZ
Pseudomonas aeruginosa = assay: Antibacterial activity against Pseudomonas aeruginosa assessed as growth inhibition at 10 ug/disk; details: read-out: IZ
Escherichia coli = assay: Antibacterial activity against Escherichia coli assessed as growth inhibition at 10 ug/disk; details: read-out: IZ
Bacillus subtilis = assay: Antibacterial activity against Bacillus subtilis assessed as growth inhibition at 10 ug/disk; details: read-out: IZ
Staphylococcus aureus = assay: Antibacterial activity against Staphylococcus aureus assessed as growth inhibition at 10 ug/disk; details: read-out: IZ
Rattus norvegicus = assay: Anti-inflammatory activity in Rattus norvegicus Wistar albino (rat) assessed as inhibition of carrageenan-induced paw edema at 10 mg/kg, po relative to untreated control

Row | SMILES | zone of inhibition at 10 µg/disc (Aspergillus niger) [mm] | zone of inhibition at 10 µg/disc (Candida albicans) [mm] | zone of inhibition at 10 µg/disc (Pseudomonas aeruginosa) [mm] | zone of inhibition at 10 µg/disc (Escherichia coli) [mm] | zone of inhibition at 10 µg/disc (Bacillus subtilis) [mm] | zone of inhibition at 10 µg/disc (Staphylococcus aureus) [mm] | inhibition in vivo at 10 mg/kg (Rattus norvegicus) [%]
1 | Cc1ccc(OCc2ccccc2-c2nc(CN3CCN(C(c4ccccc4)c4ccc(Cl)cc4)CC3)cs2)cc1 (stereo not drawn) | 19 | 20 | 24 | 28 | 28 | 28 | 56.9
2 | Cc1cccc(OCc2ccccc2-c2nc(-c3ccc([N+](=O)[O-])cc3)cs2)c1 | 8 | 9 | 10 | 11 | 12 | 8 | 46.7
3 | Cc1ccc(OCc2ccccc2-c2nc(-c3cc(Cl)sc3S(N)(=O)=O)cs2)cc1 | 16 | 20 | 20 | 22 | 18 | 20 | 68.7
4 | Cc1ccc(OCc2ccccc2-c2nc(COc3ccc(Cl)cc3)cs2)cc1 | 18 | 20 | 17 | 24 | 19 | 22 | 68.7
5 | Cc1ccc(OCc2ccccc2-c2nc(CN3CCN(C(c4ccccc4)c4ccccc4)CC3)cs2)cc1 | 8 | 10 | 18 | 18 | 21 | 20 | 63.9
6 | Cc1ccccc1OCc1ccccc1-c1nc(-c2ccc([N+](=O)[O-])cc2)cs1 | 14 | 12 | 10 | 14 | 12 | 10 | 46.7
7 | Clc1ccc(OCc2ccccc2-c2nc(CN3CCN(C(c4ccccc4)c4ccc(Cl)cc4)CC3)cs2)cc1 (stereo not drawn) | 25 | 28 | 26 | 28 | 26 | 27 | 76.4
8 | O=[N+]([O-])c1ccc(-c2csc(-c3ccccc3COc3ccc(Cl)cc3)n2)cc1 | 18 | 20 | 18 | 22 | 18 | 22 | 67.1
9 | Cc1ccccc1OCc1ccccc1-c1nc(-c2cc(Cl)sc2S(N)(=O)=O)cs1 | 16 | 18 | 22 | 20 | 20 | 22 | 70.1
10 | Cc1ccccc1OCc1ccccc1-c1nc(CN2CCN(C(c3ccccc3)c3ccc(Cl)cc3)CC2)cs1 (stereo not drawn) | 20 | 22 | 24 | 26 | 28 | 28 | 63.1
11 | Clc1ccc(OCc2ccccc2-c2nc(CN3CCN(C(c4ccccc4)c4ccccc4)CC3)cs2)cc1 | 24 | 28 | 26 | 28 | 26 | 28 | 64.9
12 | Clc1ccc(OCc2csc(-c3ccccc3COc3ccc(Cl)cc3)n2)cc1 | 24 | 26 | 24 | 26 | 27 | 28 | 76.4
13 | O=C(O)Cc1ccccc1Nc1c(Cl)cccc1Cl [DICLOFENAC SODIUM] | – | – | – | – | – | – | 75.9
14 | Cc1cccc(OCc2ccccc2-c2nc(CN3CCN(C(c4ccccc4)c4ccc(Cl)cc4)CC3)cs2)c1 (stereo not drawn) | 18 | 20 | 25 | 27 | 28 | 28 | 62.6
15 | Cc1ccc(OCc2ccccc2-c2nc(-c3ccc([N+](=O)[O-])cc3)cs2)cc1 | 14 | 11 | 12 | 10 | 10 | 12 | 56.9
16 | Cc1ccccc1OCc1ccccc1-c1nc(-c2ccc(O)c(C(N)=O)c2)cs1 | 18 | 16 | 21 | 20 | 18 | 18 | 40.5

Row | SMILES | zone of inhibition at 10 µg/disc (Aspergillus niger) [mm] | zone of inhibition at 10 µg/disc (Candida albicans) [mm] | zone of inhibition at 10 µg/disc (Pseudomonas aeruginosa) [mm] | zone of inhibition at 10 µg/disc (Escherichia coli) [mm] | zone of inhibition at 10 µg/disc (Bacillus subtilis) [mm] | zone of inhibition at 10 µg/disc (Staphylococcus aureus) [mm] | inhibition in vivo at 10 mg/kg (Rattus norvegicus) [%]
17 | OC(Cn1cncn1)(Cn1cncn1)c1ccc(F)cc1F [FLUCONAZOLE] | 25 | 26 | – | – | – | – | –
18 | Cc1ccccc1OCc1ccccc1-c1nc(COc2ccc(Cl)cc2)cs1 | 16 | 20 | 20 | 22 | 18 | 20 | 65.1
19 | Cc1cccc(OCc2ccccc2-c2nc(CN3CCN(C(c4ccccc4)c4ccccc4)CC3)cs2)c1 | 11 | 10 | 20 | 22 | 20 | 19 | 64.1
20 | Cc1ccccc1OCc1ccccc1-c1nc(-c2cccc(Br)c2)cs1 | 11 | 10 | 8 | 8 | 12 | 10 | 40.4
21 | Cc1ccc(OCc2ccccc2-c2nc(-c3cccc(Br)c3)cs2)cc1 | 11 | 14 | 10 | 8 | 12 | 10 | 44.5
22 | O=C(O)c1cn(C2CC2)c2cc(N3CCNCC3)c(F)cc2c1=O [CIPROFLOXACIN] | – | – | 25 | 28 | 26 | 26 | –
23 | NS(=O)(=O)c1sc(Cl)cc1-c1csc(-c2ccccc2COc2ccc(Cl)cc2)n1 | 24 | 26 | 24 | 26 | 28 | 28 | 76.4
24 | Cc1cccc(OCc2ccccc2-c2nc(-c3ccc(O)c(C(N)=O)c3)cs2)c1 | 11 | 18 | 22 | 20 | 22 | 22 | 42.9
25 | Cc1cccc(OCc2ccccc2-c2nc(-c3cccc(Br)c3)cs2)c1 | 16 | 14 | 10 | 10 | 10 | 12 | 46.7
26 | Clc1ccc(OCc2ccccc2-c2nc(-c3cccc(Br)c3)cs2)cc1 | 18 | 20 | 18 | 22 | 20 | 22 | 42.9
27 | Cc1ccc(OCc2ccccc2-c2nc(-c3ccc(O)c(C(N)=O)c3)cs2)cc1 | 18 | 20 | 20 | 19 | 20 | 20 | 46.7
28 | Cc1cccc(OCc2ccccc2-c2nc(COc3ccc(Cl)cc3)cs2)c1 | 18 | 22 | 18 | 20 | 22 | 24 | 67.7
29 | Cc1cccc(OCc2ccccc2-c2nc(-c3cc(Cl)sc3S(N)(=O)=O)cs2)c1 | 18 | 19 | 18 | 20 | 16 | 18 | 66.8
30 | Cc1ccccc1OCc1ccccc1-c1nc(CN2CCN(C(c3ccccc3)c3ccccc3)CC2)cs1 | 8 | 9 | 18 | 20 | 23 | 23 | 64
31 | NC(=O)c1cc(-c2csc(-c3ccccc3COc3ccc(Cl)cc3)n2)ccc1O | 25 | 27 | 24 | 28 | 26 | 28 | 72.2
